Source: US11447495B2, “Substituted benzo[f]imidazo[1,5-a][1,4]diazepines as GABA(a) receptor modulators” (priority 2016, dated 2022)
Read-outs that look alike come from different tables or passages of the source.

Legend:
HEK293 = test: Cytotoxicity, CellTiter-Glo cell viability assay, kidney cells; type: cell-based, human
Experimental: The cytotoxicity of compounds may be evaluated by treating HEK293 human embryonic kidney cells with increasing concentrations of compounds for 24-48 hours followed by the quantification of living cells using Cell-Titer Glo (Promega).
Compounds with increased cytotoxicity can be identified using an in vitro cytotoxicity assay. Therefore, human embryonic kidney 293T (HEK293T) cell lines were purchased (ATCC) and cultured in 75 cm2 flasks (CellStar). Cells were grown in DMEM/High Glucose (Hyclone, #SH3024301) media to which non-essential amino acids (Hyclone, #SH30238.01), 10 mM HEPES (Hyclone, #SH302237.01), 5×106 units of penicillin and streptomycin (Hyclone, #SV30010), and 10% of heat inactivated fetal bovine serum (Gibco, #10082147) were added. Cells were harvested using 0.05% Trypsin (Hyclone, #SH3023601). The cell viability assay was evaluated using CellTiter-Glo™ Luminescent Cell Viability Assay Kit (Promega, Madison, Wis.), which contains luciferase and all its substrate except ATP. The controls for the cytotoxicity assay used were (E)-10-(bromotriphenylphosphoranyl)decyl 4-(4-(tert-butyl)phenyl)-4-oxobut-2-enoate (400 μM in DMSO, positive control) and DMSO (negative control). All luminescence readings were performed on a Tecan Infinite M1000 plate reader. Small volume transfers were performed on the Tecan Freedom EVO liquid handling system with a 100 nL pin tool transfer (V&P Scientific). Serial dilutions were done in 96-well polypropylene plates (Corning, #3365) and assays were conducted in 384-well white optical bottom plates. The assays were carried out in quadruplet in three independent runs. The data were normalized to the controls and if possible analyzed by nonlinear regression (GraphPad Prism).

HEPG2 = test: Cytotoxicity, liver cells; type: cell-based, human
[1] = Microsomal stability, human liver microsomes; type: in vitro ADME; settings: 10 μM compound
Experimental: (§1) The metabolic stability of compounds in vivo can be estimated with the stability of compounds in the presence of liver microsomes. Therefore, 4 μL of 1 mM DMSO solution of test compound at a final concentration of 10 μM were preincubated at 37° C. for 5 minutes on a digital heating shaking dry bath (Fischer scientific, Pittsburgh, Pa.) in a mixture containing 282 μL of water, 80 μL of phosphate buffer (0.5 M, pH 7.4) 20 μL of NADPH Regenerating System Solution A (BD Bioscience, San Jose, Calif.) and 4 μL of NADPH Regenerating System Solution B (BD Bioscience, San Jose, Calif.) in a total volume of 391.2 μL. Following preincubation, the reaction was initiated by addition of 8.8 μL of either human liver microsomes (BD Gentest, San Jose, Calif.) or mouse liver microsomes (Life technologies, Rockford, Ill.) at a protein concentration of 0.5 mg/mL. Aliquots of 50 μL were taken at time intervals of 0 (without microsomes), 10, 20, 30, 40, 50 and 60 minutes. Each aliquot was added to 100 μL of cold acetonitrile solution containing 1 μM of verapamil HCL as internal standard. This was followed by sonication for 10 seconds and centrifugation at 10,000 rpm for 5 minutes. 100 μL of the supernatant was transferred into Spin-X HPLC filter tubes (Corning Incorporated, NY) and centrifuged at 13,000 rpm for 5 minutes. The filtrate was diluted 100-fold and subsequently analyzed by LC-MS/MS with Shimadzu LCMS 8040, (Shimadzu Scientific Instruments, Columbia, Md.). The ratio of the peak areas of the internal standard and test compound was calculated for every time point and the natural log of the ratio were plotted against time to determine the linear slope (k). The metabolic rate (k*C0/C), half-life (0.693/k), and […] (V*k) were calculated, where k is the slope, C0 is the initial concentration of test compound, C is the concentration of microsomes, and V is the volume of incubation in μL per microsomal protein in mg. All experiments were repeated two time in triplicates.

[2] = Microsomal stability, mouse liver microsomes; type: in vitro ADME; settings: 10 μM compound
Experimental: as §1

[3] = test system: guinea pig airway smooth muscle; test: Relaxation of substance P contracted guinea pig tracheal rings; parameters: dose or concentration left out as unconfirmed
[4] = Airway hyperresponsiveness (sRaw) to methacholine in ovalbumin asthma model; type: in vivo, ova s/c BALB/c mice; settings: oral gavage, 100 mg/kg twice daily for 5 days, methacholine challenge
Experimental: Compounds described herein may reduce airway hyperresponsiveness in animal models of asthma. Therefore, mice may be sensitized three times with intra-peritoneal (i.p.) injections of 2 mg/kg/d of ovalbumin (Ova) emulsified in […] on days 0, 7 and 14 in a total volume of 100 μL. In addition, mice may be challenged intra-nasally (i.n.) with 1 mg/kg/d Ova for 5 days from days 23-27. Control mice may be sensitized with Ova and challenged with saline. The airway hyperresponsiveness measurements may be carried out with DSI's Buxco® FinePointe Non-Invasive Airway Mechanics (NAM) instrument consisting of a nasal chamber in combination with the thoracic chamber that allows the computation of specific airway resistance (sRaw). Treated conscious, spontaneously breathing Ova S/C mice may be exposed to aerosolized phosphate buffered saline (PBS) (for the baseline measurement) or methacholine (1.5625-12.5 mg/mL) for 1 minute and readings (sRaw) may be taken and averaged for 3 minutes after each nebulization.
Drug treatment protocol: Sterile solutions of compounds were prepared in 2% hydroxypropyl methylcellulose solution (Sigma-Aldrich, St. Louis, Mo.) and 2.5% polyethylene glycol (Sigma Aldrich, St. Louis, Mo.) for oral administration in a biological safety cabinet. A fine suspension was obtained by grinding the mixture with a mortar and pestle. Drugs were administered individually at 100 mg/kg by oral gavage (200 ul) with 20G gavage needles (Kent Scientific Corporation, Torrington Conn.) to groups of ova s/c BALB/c twice daily for 5 days during the ova challenge period. Mice received a single p.o. dose of the compounds just before airway parameter measurements. Compounds for i.p. injection were prepared in 10% DMSO, 40% propylene glycol, and 50% PBS and given as 100 ul injection. Mice were monitored daily after drug administration. Assessment of Airway hyper-responsiveness: Airway hyper-responsiveness to methacholine in conscious, spontaneously breathing animals was measured by DSI's Buxco® FinePointe Non-Invasive Airway Mechanics (NAM) instrument. Before measurements were taken, mice were acclimated to the chambers 15 minutes daily for 5 days. In addition, an ovalbumin sensitization and challenge protocol consists of randomized male BALB/c mice that were sensitized three times with intra-peritoneal (i.p.) injections of 2 mg/kg/d of ovalbumin (Ova) (Sigma-Aldrich, St. Louis, Mo.) emulsified in 2 mg of Alum (Imject Alum; Thermo Scientific, Pierce, Rockford, Ill.) on days 0, 7 and 14 in a total volume of 100 μL. The mice were then challenged intra-nasally (i.n.) with 1 mg/kg/d Ova for 5 days from days 23-27. Control mice were sensitized with Ova and challenged with saline. The chambers were also calibrated each time before data collection. Briefly, the nasal chamber in combination with the thoracic chamber allows the computation of specific airway resistance (sRaw). The FinePointe software computes specific airway resistance (sRaw) with all other ventilatory parameters derived by the NAM analyzer. Mice were exposed to aerosolized PBS (for the baseline measurement) or methacholine (1.5625-12.5 mg/mL) for 1 minute and readings were taken and averaged for 3 minutes after each nebulization. Data obtained were presented as sRaw versus the methacholine concentration (mg/mL) used to generate the aerosol. FIG. 5A-5F show compound effects on airway hyperresponsiveness. Specific airway resistance (sRaw) was measured at increasing dosages of methacholine by a DSI's Buxco FinePointe non-invasive airway mechanics instrument. Ova s/c BALB/c mice were administered all compounds via oral gavage, 100 mg/kg twice daily for 5 days. Data represent mean±SEM from 10 mice in each group. *, **, and *** indicate p<0.05, p<0.01, p<0.001 significance, respectively, compared to vehicle treated ova s/c BALB/c mice.

[5] = Pharmacokinetic analysis in blood, lungs and brain; settings: mouse, 25 mg/kg oral gavage
[6] = test system: inflammatory cells, eosinophils, CD4+ T cells in BALF; test: Inflammatory cell numbers in BALF by flow cytometry; type: in vivo, ova s/c BALB/c mice; settings: 100 mg/kg twice daily for 5 days
Experimental: The change of the number of specific immune cells caused by compounds may be investigated in the bronchoalveolar lavage fluid (BALF) of Ova S/C mice. Therefore, a bronchoalveolar lavage may be carried out followed by the lysis of red blood cells. Incubation of cell-type specific antibodies with BALF may allow the quantification of leukocytes such as eosinophils and CD4^+ T-lymphocytes using flow cytometry.
Determination of anti-inflammatory properties of compounds were investigated in an allergen induced mouse model of asthma. At the day of analysis, bronchoalveolar lavage (BAL) was performed with 1 mL of Ca2+ and Mg2+ free PBS. Red blood cells (RBCs) were lysed using BD red blood cell lysis buffer (BD Pharmingen, San Jose, Calif.). BALF was split into four different tubes and non-specific binding to Fc receptors was blocked for 5 minutes using 6 μg/mL of 2.4G2 mouse BD Fc Block™ (BD Pharmingen, San Jose, Calif.). BALF cells were stained for 30 minutes at 4° C. in the dark with 100 μL BSA stain buffer (BD Pharmingen, San Jose, Calif.) containing the final concentrations of the following antibodies: anti-mouse CD45 APC (1:1000, 30-F11, Affymetrix eBiosciences, San Diego, Calif.), FITC rat anti-mouse CD4 (1:500, RM4-5, BD Pharmingen, San Jose, Calif.), PE Rat Anti-Mouse Siglec F (1:500, E50-2440, BD Pharmingen, San Jose, Calif.) and mouse CCR3 PE-conjugated antibody (1:40, 83101, R&D systems Inc, Minneapolis, Minn.). Flow cytometric studies were done using the BD FACS Calibur (BD Pharmingen, San Jose, Calif.) and data analyzed subsequently using Cell Quest pro software (BD Pharmingen, San Jose, Calif.). General gating for immune cells were followed. Total inflammatory cell count was obtained by running all samples on high (60 μL/min) for 180 seconds. The gated anti-mouse CD45 positive events in the fourth channel (FL4) were used to calculate the total inflammatory cell count as cells/mL. The frequencies of CCR3+/Siglec F were used for quantification of eosinophils and CD4+ for CD4+ T cell populations in their respective gates were multiplied by the total inflammatory cell count (cells/mL) to obtain the differential cell population. Statistical analysis: Data were analyzed using GraphPad Prism 4 (GraphPad Software, San Diego, Calif.) and expressed as mean±SEM. One-way analysis of variance (ANOVA) with Dunnet post hoc test or two-way ANOVA with Bonferroni post hoc test were performed for statistical difference for multiple groups. FIGS. 7A-7C show effects of compounds on inflammatory cells. Groups of 10 ova s/c BALB/c mice were administered compounds at 100 mg/kg twice daily for 5 days. BALF was harvested from each animal and used for (A) quantification of total inflammatory cells; (B) eosinophils; (C) CD4^+ T cells. Cells were stained with mouse CD45^+ APC antibody, and samples were analyzed with BD FACS Calibur on high flow rate (60 μl/minute) for 180 seconds. The gated positive events in the fourth channel (FL4) were used to calculate the total inflammatory cell count as cells/ml. Quantification of specific leukocyte population (B) eosinophils (C) CD4^+ T cell populations were stained with specific antibodies and detected by flow cytometry. Data represent mean±SEM from 10 mice in each group. *, **, and *** indicate p<0.05, p<0.01, and p<0.001 significance, respectively, compared to vehicle treated ova s/c BALB/c mice.

## COc1ccc2c(c1)C(=O)N1CCC[C@H]1c1c(-c3nnn[nH]3)ncn1-2 [RJ-03-57, (S)-7-methoxy-1-(1H-tetrazol-5-yl)-11,12,13,13a-tetrahydro-9H-benzo[e]imidazo[5,1-c]pyrrolo[1,2-a][1,4]diazepin-9-one]
HEK293
  LD50 HEK293 (Kidney): >200 µM
HEPG2
  LD50 HEPG2 (Liver): >200 µM
[1]
  HLM % remaining after 60 min: 94.3 ± 0.1%
[2]
  MLM % remaining after 60 min: 98.3 ± 0.2%
[3]
  airway smooth muscle contractile force, guinea pig tracheal rings: All investigated compounds except RJ-03-57 reduced the constriction of airway smooth muscle
[4]
  airway hyperresponsiveness (sRaw): not able to alleviate airway hyperresponsiveness
[5]
  absorption: moderate absorption
  clearance: fast clearance

## C[C@H]1N=C(c2ccccc2F)c2cc(C3CC3)ccc2-n2cnc(C(=O)O)c21 [GL-III-43, (R)-8-cyclopropyl-6-(2-fluorophenyl)-4-methyl-4H-benzo[f]imidazo[1,5-a][1,4]diazepine-3-carboxylic acid]
[4]
  airway hyperresponsiveness (sRaw): not able to alleviate airway hyperresponsiveness
[6]
  numbers of inflammatory cells in BALF: did not modulate the numbers of inflammatory cells

## CC(C)(C)OC(=O)c1ncn2c1[C@@H]1CCCN1C(=O)c1cc(O)ccc1-2 [RJ-02-67, tert-butyl (S)-7-hydroxy-9-oxo-11,12,13,13a-tetrahydro-9H-benzo[e]imidazo[5,1-c]pyrrolo[1,2-a][1,4]diazepine-1-carboxylate]
HEK293; human, HEK293 (HEK293T) human embryonic kidney cells
  LD50 HEK293 (Kidney): >400 µM
HEPG2; human, HepG2 liver cells
  LD50 HEPG2 (Liver): >400 µM
[1]
  HLM % remaining after 60 min: 90.6 ± 0.2%
[2]
  MLM % remaining after 60 min: 46.6 ± 0.3%

## O=C(O)c1ncn2c1[C@@H]1CCCN1C(=O)c1cc(O)ccc1-2 [RJ-03-90, (S)-7-hydroxy-9-oxo-11,12,13,13a-tetrahydro-9H-benzo[e]imidazo[5,1-c]pyrrolo[1,2-a][1,4]diazepine-1-carboxylic acid]
[6]
  numbers of inflammatory cells in BALF: did not modulate the numbers of inflammatory cells
